“And” between values parts separate entries of the source, which are not always exact repeats. Equal entries are not always repeated.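 Following 48 hours of exposure in 96-well plates, responses at five concentrations were used to interpolate endpoints linearly. At the GI50, growth is halved. At the TGI there is no net growth.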
Columns and labels:
Assay in all cases: NCI tumour cell line growth inhibition, 48 h
HOP-62 NSCLC = system: HOP-62 NSCLC
UACC-62 melanoma = system: UACC-62 melanoma
786-0 renal = system: 786-0 renal
TK-10 renal = system: TK-10 renal
SNB-75 CNS = system: SNB-75 CNS
CAKI-1 renal = system: CAKI-1 renal
UO-31 renal = system: UO-31 renal
BT-549 breast = system: BT-549 breast
EKVX NSCLC = system: EKVX NSCLC
NCI-H460 lung = system: NCI-H460 lung

| SMILES | GI50 (HOP-62 NSCLC) | TGI (HOP-62 NSCLC) | GI50 (UACC-62 melanoma) | TGI (UACC-62 melanoma) | GI50 (786-0 renal) | TGI (786-0 renal) | GI50 (TK-10 renal) | TGI (TK-10 renal) | GI50 (SNB-75 CNS) | TGI (SNB-75 CNS) | GI50 (CAKI-1 renal) | TGI (CAKI-1 renal) | GI50 (UO-31 renal) | TGI (UO-31 renal) | GI50 (BT-549 breast) | TGI (BT-549 breast) | GI50 (EKVX NSCLC) | TGI (EKVX NSCLC) | GI50 (NCI-H460 lung) | TGI (NCI-H460 lung) |
| --- | --- | --- | --- | --- | --- | --- | --- | --- | --- | --- | --- | --- | --- | --- | --- | --- | --- | --- | --- | --- |
| COc1ccc(Cl)cc1Nc1nc(C(F)(F)F)ccc1C(=O)NN | 5.78 µM | > 75.4 µM | 4.87 µM | 53.5 µM | 2.42 µM | > 25.8 µM | 3.81 µM | > 100 µM | 16.6 µM | > 100 µM | 2.74 µM | 22.7 µM | 3.97 µM | > 76.7 µM | 2.13 µM | > 100 µM | 2.93 µM | > 100 µM | 23 µM | > 100 µM |
| CCOC(=O)c1c(NC(=O)c2ccc(C(C)C)cc2)sc2c(CN(C)C)c(O)ccc12 | 2.2 µM | 5.89 µM | 1.82 µM | 3.48 µM | 1.79 µM | 3.36 µM | 3 µM | 9.39 µM | 1.47 µM | 3.39 µM | 1.73 µM | 3.44 µM | 1.46 µM | 2.82 µM | 2.18 µM | 5.35 µM | 2.78 µM | 9.09 µM | 1.88 µM | 3.6 µM |
| Cc1cccc(NC(=O)c2sc3nc4c(cc3c2N)CCCC4)c1C | 0.537 µM | > 100 µM | 0.533 µM | > 100 µM | 0.532 µM | > 100 µM | 23.3 µM | > 100 µM | 0.173 µM |  | 0.491 µM | > 100 µM |  | > 100 µM | 2.51 µM | > 100 µM | 0.708 µM | > 100 µM | 0.369 µM | > 100 µM |
| C/C(=N\O)c1ccc(Nc2cc(-n3nnc4ccccc43)nc3ccccc23)cc1 | 6.14 µM | 21.4 µM | 6.9 µM | 19 µM | 4.89 µM | 13.3 µM | 3.14 µM | 14.2 µM | 22.8 µM | 99.2 µM | 4.26 µM | 13.7 µM | 6.79 µM | 26.6 µM | 3.77 µM | 14.8 µM | 6.97 µM | > 28.9 µM | 4.08 µM | > 25.4 µM |
| Fc1cccc(COc2ccc(Nc3ncnc4sc(-c5ccco5)cc34)cc2Cl)c1 | > 25 µM | > 25 µM | > 25 µM | > 25 µM | > 25 µM | > 25 µM | > 25 µM | > 25 µM | > 25 µM | > 25 µM | > 25 µM | > 25 µM | > 25 µM | > 25 µM | > 25 µM | > 25 µM | > 25 µM | > 25 µM | > 25 µM | > 25 µM |
| O=C(Nc1ccc(OC(F)(F)F)cc1)c1sccc1NCc1ccnc2ccccc12 | 9.55 µM | > 100 µM | 1.89 µM | 14.9 µM | 7.53 µM | > 88.1 µM | 4.87 µM | 98.6 µM | 1.88 µM | 26.5 µM | 1.75 µM | 19.3 µM | 2.34 µM | 26.1 µM | 6.9 µM | 51.5 µM | 2.35 µM | > 100 µM | 4.01 µM | > 100 µM |
| COC1/C=C/OC2(C)Oc3c(C)c(O)c4c(c3C2=O)C(=O)C=C(NC(=O)/C(C)=C\C=C\C(C)C(OC=O)C(C)C(O)C(C)C(OC(C)=O)C1C)C4=O (stereo not drawn) |  | 34.8 µM |  | 27.9 µM |  | 20.8 µM |  | 30.4 µM |  | 41.1 µM |  | 28.3 µM |  | 29.6 µM |  | 24 µM |  | 25.8 µM |  | 42 µM |
| Nc1cc(N)c2nc(-c3ccccc3)c(Oc3ccc(F)cc3)nc2c1 | 21.5 µM | 49.5 µM | 15.8 µM | 33.2 µM | 15.7 µM | 36.3 µM | 20.4 µM | 46.3 µM | 23.5 µM | 49.4 µM | 19.4 µM | 37 µM | 29.6 µM | > 100 µM | 15 µM | 34.8 µM | 14.6 µM | 33.7 µM | 39.6 µM | > 100 µM |
| CC1(C)O[C@H]2OC3CCC(=O)CC3(O)[C@H]2O1 (stereo partly drawn) |  | > 100 µM |  | > 100 µM |  | > 100 µM |  | > 100 µM |  | > 100 µM |  | > 100 µM |  | > 100 µM |  | > 100 µM |  | > 100 µM |  | > 100 µM |
| CSc1ccc(C2=Nn3c(nnc3-c3ccc(F)c(Cl)c3)SC2)cc1 | 5.84 µM | 19.5 µM | 2.04 µM | 8.19 µM | 13.5 µM | 32 µM | 7.52 µM | 21.2 µM | 4.67 µM | 16 µM | 22.5 µM | > 100 µM | 16.5 µM | 43.7 µM | 12.8 µM | 50.5 µM | 42.1 µM | > 100 µM | 14.6 µM | 38.6 µM |
| CNC(=O)Nc1ccc(-c2nc(N3CCOCC3)nc3c2cnn3C2CCOCC2)cc1 | 0.23 µM | 4.38 µM | 0.182 µM | 1.19 µM | 0.295 µM | 2.86 µM | 0.172 µM | 1.47 µM | 0.045 µM | 0.448 µM | 0.227 µM | 2.62 µM | 0.0435 µM | 0.544 µM | 0.132 µM | 2.08 µM | 0.18 µM | 2.42 µM | 0.131 µM | > 100 µM |
| CN1CCCN(CCNc2nccc(-c3c(-c4cccc(O)c4)nc4sccn34)n2)S1(=O)=O | 30.6 µM and 30.9 µM | 75 µM and > 100 µM | 0.0417 µM and 0.0537 µM | 1.4 µM and 2.22 µM | 5.55 µM and 7.14 µM | 72.4 µM and > 100 µM | 13 µM and 11.6 µM | 64.6 µM and 73.2 µM | 1.47 µM and 2.19 µM | 75 µM and > 100 µM | 2.25 µM and 2.15 µM | 23.5 µM and 16.3 µM | 5.2 µM and 6.46 µM | 39 µM and > 87.2 µM | 9.2 µM and 12.3 µM | 58.8 µM and > 78.4 µM | 31.1 µM and 30.3 µM | 75 µM and > 100 µM | 4.41 µM and 4.72 µM | 75 µM and > 75.9 µM |
| O=c1oc2ccccc2c(O)c1C=NC(=S)c1ccncc1 |  | > 100 µM |  | > 100 µM |  | > 100 µM |  | > 100 µM |  | > 100 µM |  | > 100 µM |  | > 100 µM |  | 94 µM |  | > 100 µM |  | > 100 µM |
| C[n+]1cc2c3c(ccc2c2ccc4cc5c(cc4c21)OCO5)OCO3 | 0.349 µM | 1.44 µM | 0.744 µM | 2.08 µM | 1.02 µM | 2.26 µM | 1.33 µM | 2.65 µM | 1.01 µM | 2.17 µM | 0.735 µM | 2.13 µM | 0.359 µM | 1.7 µM | 0.784 µM | 2.08 µM | 1.33 µM | 2.65 µM | 1.29 µM | 3.7 µM |
| COc1ccc(C(=O)N2c3ccccc3Sc3ccccc32)c(F)c1 | 0.968 µM | > 100 µM | 0.382 µM | > 100 µM | 0.675 µM | > 100 µM | 10.4 µM | > 100 µM | 0.288 µM | 34 µM | 0.584 µM | > 100 µM | 3.78 µM | > 100 µM | 0.676 µM | > 100 µM | 2.72 µM | > 100 µM | 0.485 µM | > 100 µM |
| CC1(C)CCC(C)(C)c2cc(C(=O)Nc3ccc(C(=O)O)cc3)ccc21 |  | 37.5 µM |  | 41.2 µM |  | > 56.5 µM |  | > 73.3 µM |  | > 100 µM |  | 37.2 µM |  | 30.7 µM |  | 73 µM |  | > 100 µM |  | 46.9 µM |
| COc1cc(/C=C2\CN(C)CC3=C2Nc2nc(SC)[nH]c(=O)c2C3c2cc(OC)c(OC)c(OC)c2)cc(OC)c1OC (stereo not drawn) | 2.46 µM | 7.09 µM | 2.06 µM | 5.11 µM | 4.01 µM | 16.9 µM | 6.06 µM | 18.9 µM | 7.36 µM | 22.6 µM | 2.15 µM | 4.71 µM | 1.57 µM | 3.44 µM | 2.98 µM | 8.12 µM | 8.44 µM | 66.4 µM | 2.3 µM | 5.4 µM |
| CS(=O)(=O)c1ccc(Cl)c([N+](=O)[O-])c1 | 15.8 µM | 29.5 µM | 15.1 µM | 28.6 µM | 19.9 µM | 36.8 µM | 18.9 µM | 34.4 µM | 15.3 µM | 29.5 µM | 2.05 µM | 4.3 µM | 1.97 µM | 4.04 µM | 18.7 µM | 32.8 µM | 18.5 µM | 38.1 µM | 18.3 µM | 40.8 µM |
| Cc1ccc(C(=O)Nc2ccc(CN3CCN(C)CC3)c(C(F)(F)F)c2)cc1C#Cc1cnc(N)c2ccc(F)cc12 | 0.753 µM | 3.44 µM | 0.329 µM | 1.02 µM | 0.305 µM | 0.731 µM | 0.416 µM | 2.72 µM | 0.256 µM | 0.863 µM | 0.216 µM | 1.29 µM | 0.121 µM | 0.748 µM | 1.31 µM | 4.33 µM | 1.06 µM | 4.73 µM | 0.232 µM | 0.647 µM |
